The test system of one series is A. platensis. In words: Micro-evolution exposure (60 days) with fluctuation analysis. In kind it is cell-based, Arthrospira platensis. An excerpt: The result from the fluctuation analysis after the selected period can explain the presence of resistant cells in two ways. Each result is interpreted as the independent consequence of two different phenomena of adaptation. In the first case, if resistant cells arose during the exposure to the selective agent (that is, by physiological adaptation), the variance in the number of cells per culture would be low because every cell is likely to have the same chance of developing resistance (set 1A; FIG. 3). Consequently, inter-culture (tube-to-tube) variation would be consistent with the Poisson model (that is, the variance of these replicate samples would be equal to the mean). By contrast, if resistant cells arose before the exposure to the selective agent (that is, genetic adaptation by rare spontaneous mutation occurring during the time in which the cultures grew from N0 to Nt), a high variation in the number of resistant cells per culture would be found (set 1B; FIG. 3). The tube-to-tube variation would not be consistent with the Poisson model (that is, variance>mean). Fluctuation analysis can likewise show the possibility of no adaptation if no resistant cells are observed after the incubation period in any of the experimental cultures. Since set 2 is the control of the experiment, variation is due only to random sampling and variation from tube to tube would be consistent with the Poisson model. […] If a similar variance: mean ratio between set 1 and set 2 is found, it confirms that resistant cells arose during the exposure to the selecting agent (that is, a post-selective mechanism).
FIG. 2 illustrates a typical outline of the micro-evolution process. The experiment was performed based on the method from Gonzalez et al., (2012). Following FIG. 2, the culture was cloned through the isolation of a single alga or cyanobacterium, to avoid the inclusion of previous spontaneous mutations, followed by growth. Cloning was performed through microdilution in microwell plates, where the culture was diluted to the culture density of 1 microbe (micro-organism, MO) per 200 μl, providing a single cell in each well (although if microalgae/cyanobacteria can grow on solid medium, isolation on medium agar can also be performed). Propagation of the cloned culture was performed from 200 μl in increasing volume flasks with foam stoppers in a constant temperature room 18° C.+/−1° C., average light intensity 2800 lux with 8:16 dark:light cycle.
10e2 MOs were then subcultured into 10 ml 40 vials (set 1), and cultures propagated further in vials and propagation flask (for set 2) (FIG. 3). Before exposure, controls ‘set 2’ were prepared through subculturing from flask into 20 vials. During the exposure stage, CuSO4 solution was added to the 60 vials of each concentration set to make-up the final concentrations of 0.3, 0.6, 1, 2 and 4 mg/Cu^2+ ions. Vials were stored under propagation conditions described above for a period of 60 days, with daily agitation, ensuring resistant cells could generate enough progeny to be detected. After the incubation period, fluctuation analysis was performed to identify those cultures which resistance arose through microevolution.

Series [1] deals with Arthrospira platensis (CCMP1295). Description: Toxicology assay over 72 hours (BS EN ISO 10253:2006), reduction in specific growth rate. It is filed as cell-based. The procedure:
Toxicology assays and EC50 calculations for copper were performed on Arthrospira platensis (CCMP1295). Assessments were performed under aseptic conditions in 2 stages through an initial range-finding assay (data not shown) using CuSO4 solutions to detect the region of the EC50, followed by a final toxicology assay over 72 hours following British Standard BS EN ISO 10253:2006 [15] with ECso determination where inhibition is measured as a reduction in specific growth rate, relative to control cultures grown under identical conditions. Visual analysis was also performed to assess the effects of metal toxicity on morphology. Statistical analysis was performed using GraphPad Prism 5 Non-linear transform log(agonist) vs. response—variable response function.
FIGS. 4A and 4B show the results of the toxicity assay using A. platensis. EC50 of Cu^2+ ions for A. platensis was calculated at 0.2976 (in the 95% CI range of 0.17-0.5208 mg/L with an R squared value of 0.8654).

The source of these data is patent publication US20150353982A1, “MICRO-EVOLUTION OF MICROBES” (priority 2012, published 2015).

For orientation: EC50 means the concentration needed to bring the measured effect to its halfway point. High values mean a need for much substance, low ones an effect from little substance. For the molecule `O=S(=O)([O-])[O-].[Cu+2]` [Cu^2+ ions, CuSO4], the Outcome entry was “RSM” in the series with A. platensis (0.3 mg/L Cu^2+ ion concentration); “RSM” in the series with A. platensis (0.6 mg/L Cu^2+ ion concentration); “No adaptation” in the series with A. platensis (1 mg/L Cu^2+ ion concentration); “No adaptation” in the series with A. platensis (2 mg/L Cu^2+ ion concentration); “No adaptation” with A. platensis (4 mg/L Cu^2+ ion concentration). Also, the “morphological changes (microscope)” value in series [1] (1 mg/L Cu2+, after 24 hour) is “fragmentation of the trichomes”. Further, in series [1] (72 hours, CuSO4 solutions, 95% CI 0.17-0.5208 mg/L, R squared 0.8654), the EC50 worked out at 0.2976 µg/mL.
